The structures appear in SMILES notation. ≈ marks a conversion by molar mass, not a printed value. Where “and” joins values, the source holds several entries; their conditions need not be identical. Identical values can stand only once.

T2 sequence (O42275 24-633): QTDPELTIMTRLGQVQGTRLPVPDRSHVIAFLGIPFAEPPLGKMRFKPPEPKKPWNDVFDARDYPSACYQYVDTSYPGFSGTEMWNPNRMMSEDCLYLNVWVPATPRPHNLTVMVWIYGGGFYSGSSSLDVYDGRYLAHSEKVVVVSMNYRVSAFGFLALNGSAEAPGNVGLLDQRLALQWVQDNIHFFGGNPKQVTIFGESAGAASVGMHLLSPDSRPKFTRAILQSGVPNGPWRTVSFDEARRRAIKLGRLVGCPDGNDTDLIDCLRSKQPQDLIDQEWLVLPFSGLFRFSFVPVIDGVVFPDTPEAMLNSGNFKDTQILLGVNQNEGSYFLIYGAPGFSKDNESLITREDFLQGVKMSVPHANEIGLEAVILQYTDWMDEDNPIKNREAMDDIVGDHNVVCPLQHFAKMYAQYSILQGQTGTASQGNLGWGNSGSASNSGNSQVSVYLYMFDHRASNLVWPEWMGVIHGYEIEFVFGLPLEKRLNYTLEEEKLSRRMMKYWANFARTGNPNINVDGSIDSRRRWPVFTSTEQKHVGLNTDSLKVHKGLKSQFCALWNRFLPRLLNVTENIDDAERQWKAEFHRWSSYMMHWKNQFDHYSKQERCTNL

Test system in one assay: not listed separately
Put plainly: ABTS free radicals scavenging assay. As to conditions: conc. 250 μg/mL; n = 3. The method, then: ABTS (2, 2-azinobis [3-ethylbenzthiazoline]-6-sulfonic acid) free radicals were also used to confirm the antioxidant activity of the synthesized compounds. The activity is based on the capacity of antioxidants to scavenge ABTS^+ radical cation causing a reduction in absorbance at 734 nm. ABTS (7 mM) and […] (2.45 mM) solutions were prepared and mixed. The resultant mixture was maintained at room temperature in dark for 12–16 h to get dark color solution containing ABTS^+ radical cations. At the time of activity, ABTS^+ radical cation solution was diluted with Phosphate buffer (0.01 M) pH 7.4 to adjust an absorbance value of 0.70 at 734 nm. Radical scavenging capability of the compounds was analyzed by mixing 300 μl of compound with 3.0 mL of ABTS solution in cuvette. The reduction in absorbance was measured spectrophotometrically after one minute of mixing the solutions and continued for six min. Ascorbic acid was used as a positive control. The assay was repeated three times and percent inhibition was calculated with formula; %scavengingeffect=Controlabsorbance‐Sampleabsorbance/Controlabsorbance×100
(§1) Radical scavenging ability was calculated by a linear regression analysis among the inhibition percentages against the compounds concentrations via the Excel program.
`CCOC(=O)C1(C2CC(=O)N(c3ccccc3)C2=O)CCCCC1=O` (stereo not drawn) [Compound 3, Ethyl 2-oxo-1-(2,5-dioxo-1-phenylpyrrolidin-3-yl)cyclohexanecarboxylate]: the “Percent inhibition (mean ± SEM), ABTS free radicals scavenging” value was 64.67 ± 0.89 %.

As to `CCOC(=O)C1(C2CC(=O)N(Cc3ccccc3)C2=O)CCCCC1=O` (stereo not drawn) [Compound 4, 1Ethyl 1-(1-benzyl-2,5-dioxopyrrolidin-3-yl)-2-oxocyclohexanecarboxylate], the “Percent inhibition (mean ± SEM), ABTS free radicals scavenging” value is on record as 54.00 ± 1.15 %.

Staying with this assay, now noted: conc. 500 μg/mL; n = 3.
With `CCOC(=O)C1(C2CC(=O)N(c3ccccc3)C2=O)CCCCC1=O` (stereo not drawn) [Compound 3, Ethyl 2-oxo-1-(2,5-dioxo-1-phenylpyrrolidin-3-yl)cyclohexanecarboxylate], the “Percent inhibition (mean ± SEM), ABTS free radicals scavenging” value is given as 71.25 ± 0.48 %.

For the compound `CCOC(=O)C1(C2CC(=O)N(Cc3ccccc3)C2=O)CCCCC1=O` (stereo not drawn) [Compound 4, 1Ethyl 1-(1-benzyl-2,5-dioxopyrrolidin-3-yl)-2-oxocyclohexanecarboxylate], the “Percent inhibition (mean ± SEM), ABTS free radicals scavenging” value turned out to be 67.33 ± 0.77 %.

The same assay, now with this note: conc. 1000 μg/mL; n = 3.
On to `CCOC(=O)C1(C2CC(=O)N(c3ccccc3)C2=O)CCCCC1=O` (stereo not drawn) [Compound 3, Ethyl 2-oxo-1-(2,5-dioxo-1-phenylpyrrolidin-3-yl)cyclohexanecarboxylate], for which the “Percent inhibition (mean ± SEM), ABTS free radicals scavenging” value was determined as 80.41 ± 0.73 %.

For the compound `CCOC(=O)C1(C2CC(=O)N(Cc3ccccc3)C2=O)CCCCC1=O` (stereo not drawn) [Compound 4, 1Ethyl 1-(1-benzyl-2,5-dioxopyrrolidin-3-yl)-2-oxocyclohexanecarboxylate], the “Percent inhibition (mean ± SEM), ABTS free radicals scavenging” value was 73.59 ± 0.43 %.

Still in this assay, the particulars now being: from 250-1000 μg/mL tested concentrations.
`CCOC(=O)C1(C2CC(=O)N(c3ccccc3)C2=O)CCCCC1=O` (stereo not drawn) [Compound 3, Ethyl 2-oxo-1-(2,5-dioxo-1-phenylpyrrolidin-3-yl)cyclohexanecarboxylate]: the “IC50 (ABTS free radicals scavenging)” value was 73 µg/mL (≈ 213 µM).

Regarding `CCOC(=O)C1(C2CC(=O)N(Cc3ccccc3)C2=O)CCCCC1=O` (stereo not drawn) [Compound 4, 1Ethyl 1-(1-benzyl-2,5-dioxopyrrolidin-3-yl)-2-oxocyclohexanecarboxylate], the “IC50 (ABTS free radicals scavenging)” value is 173 µg/mL (≈ 484 µM).

For the next assay, the target named is T1, butyrylcholinesterase (BChE) from equine serum (Equus caballus, UniProt P81908).
T1 construct: BChE equine serum Lyophilized (CAS 9001-08-5 Sigma-Aldrich GmbH USA); purchased Sigma-Aldrich CAS 9001-08-5 (catalogue number not given); host or cells: equine serum
T1 sequence (P81908 whole entry): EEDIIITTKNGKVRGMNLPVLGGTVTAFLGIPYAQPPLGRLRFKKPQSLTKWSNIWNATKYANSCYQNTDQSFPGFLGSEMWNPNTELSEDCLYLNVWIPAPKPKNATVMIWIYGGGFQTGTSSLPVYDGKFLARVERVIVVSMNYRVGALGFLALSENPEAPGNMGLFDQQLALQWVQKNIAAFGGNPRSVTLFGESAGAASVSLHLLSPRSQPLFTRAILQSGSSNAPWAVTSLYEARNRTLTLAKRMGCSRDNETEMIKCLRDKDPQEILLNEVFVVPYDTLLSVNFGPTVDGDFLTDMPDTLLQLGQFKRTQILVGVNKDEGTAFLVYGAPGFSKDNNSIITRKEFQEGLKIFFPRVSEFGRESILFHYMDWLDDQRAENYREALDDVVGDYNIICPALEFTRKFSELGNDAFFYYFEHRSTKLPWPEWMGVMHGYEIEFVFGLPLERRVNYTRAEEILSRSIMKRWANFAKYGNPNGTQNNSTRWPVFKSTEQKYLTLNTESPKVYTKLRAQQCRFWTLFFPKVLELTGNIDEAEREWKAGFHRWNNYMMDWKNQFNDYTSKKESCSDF
Put plainly: Butyrylcholinesterase inhibition assay (Ellman's spectrophotometric assay). Format: biochemical. As to conditions: from 250-1000 μg/mL tested concentrations. The method, then: (§2) The assay is based on the acetylcholinesterase promoted hydrolysis of acetylthiocholine iodide and butyrylthiocholine iodide by butyrylcholinesterase. The hydrolysis processes give 5-thio-2-nitrobenzoate anion followed by complexation with DTNB (which give yellow color) and is detected by the spectrophotometer.
(§3) Compounds (each separately) were dissolved in phosphate buffer (0.1 M) in concentrations ranging from 250–1000 μg/mL. […] Finally, potassium hydroxide was used to adjust pH. AChE (518 U/mg solid) and BChE (7–16 U/mg) were diluted in freshly prepared buffer pH 8.0 until final concentrations of 0.03 U/mL and 0.01 U/mL were obtained. Solutions of DTNB (0.0002273 M), ATchI and BTchI (0.0005 M) were prepared in distilled water and were kept in Eppendorf caps in the refrigerator.
(§4) For each assay, an enzyme solution of 5 μl was added to the cuvette followed by addition of compound (205 μl), and finally DTNB reagent (5 μl). The solution mixture was maintained at 30 °C for 15 min using water bath with subsequent addition of substrate solution (5 μl). A double beam spectrophotometer was used to measure the absorbance at 412 nm. […] The absorbances along with the reaction time were taken for four minutes at 30 °C and were repeated in triplicate. Finally, the enzyme activity and enzyme inhibition by control and tested samples were calculated from the rate of absorption with change in time (V = ΔAbs /Δt) as follow;
Where Vmax is enzyme activity in the absence of inhibitor drug.
as §1
For `CCOC(=O)C1(C2CC(=O)N(c3ccccc3)C2=O)CCCCC1=O` (stereo not drawn) [Compound 3, Ethyl 2-oxo-1-(2,5-dioxo-1-phenylpyrrolidin-3-yl)cyclohexanecarboxylate], half-maximal inhibition (IC50) was put at 20.4 µM.

Turning to `CCOC(=O)C1(C2CC(=O)N(Cc3ccccc3)C2=O)CCCCC1=O` (stereo not drawn) [Compound 4, 1Ethyl 1-(1-benzyl-2,5-dioxopyrrolidin-3-yl)-2-oxocyclohexanecarboxylate], the IC50 is 5.6 µM.

The assay is the same for the next values; noted with them: read-out: Percent AChEI (mean ± SEM) (Table 3, butyrylcholinesterase inhibition).
For the compound `CCOC(=O)C1(C2CC(=O)N(c3ccccc3)C2=O)CCCCC1=O` (stereo not drawn) [Compound 3, Ethyl 2-oxo-1-(2,5-dioxo-1-phenylpyrrolidin-3-yl)cyclohexanecarboxylate], the inhibition at 250 µg/mL turned out to be 78.25 ± 0.04%, the inhibition at 500 µg/mL was found to be 89 ± 0.3% and the inhibition at 1000 µg/mL was found to be 89.25 ± 0.5%.

As to `CCOC(=O)C1(C2CC(=O)N(Cc3ccccc3)C2=O)CCCCC1=O` (stereo not drawn) [Compound 4, 1Ethyl 1-(1-benzyl-2,5-dioxopyrrolidin-3-yl)-2-oxocyclohexanecarboxylate], the inhibition at 250 µg/mL came to 87.5 ± 0.04%, the inhibition at 500 µg/mL was 88.5 ± 0.5% and the inhibition at 1000 µg/mL was found to be 98.5 ± 0.18%.

As for `COc1ccc2c3c1O[C@H]1C[C@@H](O)C=C[C@@]31CCN(C)C2` [Galanthamine, reference compound], the inhibition at 250 µg/mL was 71.72 ± 0.51%, the inhibition at 500 µg/mL came to 85.47 ± 0.59% and the inhibition at 1000 µg/mL is 94.5 ± 0.71%.

The next assay addresses T2, acetylcholinesterase (AChE) from Electric eel (Electrophorus electricus, UniProt O42275).
T2 construct: AChE Electric eel (type-VI-S, CAS 9000-81-1 Sigma-Aldrich GmbH USA); purchased Sigma-Aldrich type-VI-S (CAS 9000-81-1; catalogue number not given)
Test: not given
Conditions: concentration 250 μg/mL; n = 3. The class given is biochemical. The method, then: as §2, §3, §4
Where Vmax is enzyme activity in the absence of inhibitor drug. […]
In the case of `CCOC(=O)C1(C2CC(=O)N(c3ccccc3)C2=O)CCCCC1=O` (stereo not drawn) [Compound 3, Ethyl 2-oxo-1-(2,5-dioxo-1-phenylpyrrolidin-3-yl)cyclohexanecarboxylate], the “Percent AChEI (mean ± SEM)” value is reported as 95.25 ± 0.20 ^ns %.

For `CCOC(=O)C1(C2CC(=O)N(Cc3ccccc3)C2=O)CCCCC1=O` (stereo not drawn) [Compound 4, 1Ethyl 1-(1-benzyl-2,5-dioxopyrrolidin-3-yl)-2-oxocyclohexanecarboxylate], the “Percent AChEI (mean ± SEM)” value was 93.25 ± 0.15 ^ns %.

The same assay, now with this note: concentration 500 μg/mL; n = 3.
`CCOC(=O)C1(C2CC(=O)N(c3ccccc3)C2=O)CCCCC1=O` (stereo not drawn) [Compound 3, Ethyl 2-oxo-1-(2,5-dioxo-1-phenylpyrrolidin-3-yl)cyclohexanecarboxylate]: the “Percent AChEI (mean ± SEM)” value is 96.00 ± 0.80 ^ns %.

Regarding `CCOC(=O)C1(C2CC(=O)N(Cc3ccccc3)C2=O)CCCCC1=O` (stereo not drawn) [Compound 4, 1Ethyl 1-(1-benzyl-2,5-dioxopyrrolidin-3-yl)-2-oxocyclohexanecarboxylate], the “Percent AChEI (mean ± SEM)” value was 96.00 ± 0.55 ^ns %.

Staying with this assay, now noted: concentration 1000 μg/mL; n = 3.
Regarding `CCOC(=O)C1(C2CC(=O)N(c3ccccc3)C2=O)CCCCC1=O` (stereo not drawn) [Compound 3, Ethyl 2-oxo-1-(2,5-dioxo-1-phenylpyrrolidin-3-yl)cyclohexanecarboxylate], the “Percent AChEI (mean ± SEM)” value was 98.50 ± 0.09% and 98.50 ± 0.09 ^ns %.

Regarding `CCOC(=O)C1(C2CC(=O)N(Cc3ccccc3)C2=O)CCCCC1=O` (stereo not drawn) [Compound 4, 1Ethyl 1-(1-benzyl-2,5-dioxopyrrolidin-3-yl)-2-oxocyclohexanecarboxylate], the “Percent AChEI (mean ± SEM)” value was 97.25 ± 0.07% and 97.25 ± 0.07 ^ns %.

Test system in another assay: not listed separately
Briefly: DPPH free radicals scavenging assay. Conditions: conc. 250 μg/mL; n = 3. The method, then: The compounds’ free radical scavenging ability was evaluated using 1,1-diphenyl, 2-picrylhydrazyl (DPPH) free radicals. Different dilutions (250, 500 and 1000 μg/mL) of compounds (0.1 mL) were added to 0.004 % methanolic solution of DPPH. After 30 min the absorbance was measured at 517 nm using UV spectrophotometer. Ascorbic acid was used as positive control.
Percent scavenging activity was calculated as; A0−A1/A0×100
Where A0 is absorbance of control and A1 is the absorbance of the compound sample. Each experiment was performed in triplicate and inhibition curves were constructed using the GraphPad prism program (GraphPAD, San Diego, California, USA) and median inhibitory concentrations (IC50) values were determined.
as §1
On to `CCOC(=O)C1(C2CC(=O)N(c3ccccc3)C2=O)CCCCC1=O` (stereo not drawn) [Compound 3, Ethyl 2-oxo-1-(2,5-dioxo-1-phenylpyrrolidin-3-yl)cyclohexanecarboxylate], for which the “Percent inhibition (mean ± SEM), DPPH free radicals scavenging” value was 30.59 ± 0.67 %.

As to `CCOC(=O)C1(C2CC(=O)N(Cc3ccccc3)C2=O)CCCCC1=O` (stereo not drawn) [Compound 4, 1Ethyl 1-(1-benzyl-2,5-dioxopyrrolidin-3-yl)-2-oxocyclohexanecarboxylate], the “Percent inhibition (mean ± SEM), DPPH free radicals scavenging” value was 20.34 ± 0.58 %.

The same assay, now with this note: conc. 500 μg/mL; n = 3.
For the compound `CCOC(=O)C1(C2CC(=O)N(c3ccccc3)C2=O)CCCCC1=O` (stereo not drawn) [Compound 3, Ethyl 2-oxo-1-(2,5-dioxo-1-phenylpyrrolidin-3-yl)cyclohexanecarboxylate], the “Percent inhibition (mean ± SEM), DPPH free radicals scavenging” value was determined as 54.64 ± 0.70 %.

Consider `CCOC(=O)C1(C2CC(=O)N(Cc3ccccc3)C2=O)CCCCC1=O` (stereo not drawn) [Compound 4, 1Ethyl 1-(1-benzyl-2,5-dioxopyrrolidin-3-yl)-2-oxocyclohexanecarboxylate], for which the “Percent inhibition (mean ± SEM), DPPH free radicals scavenging” value is reported as 24.75 ± 0.64 %.

The same assay, now with this note: conc. 1000 μg/mL; n = 3.
Regarding `CCOC(=O)C1(C2CC(=O)N(c3ccccc3)C2=O)CCCCC1=O` (stereo not drawn) [Compound 3, Ethyl 2-oxo-1-(2,5-dioxo-1-phenylpyrrolidin-3-yl)cyclohexanecarboxylate], the “Percent inhibition (mean ± SEM), DPPH free radicals scavenging” value worked out at 60.40 ± 0.49 %.

On to `CCOC(=O)C1(C2CC(=O)N(Cc3ccccc3)C2=O)CCCCC1=O` (stereo not drawn) [Compound 4, 1Ethyl 1-(1-benzyl-2,5-dioxopyrrolidin-3-yl)-2-oxocyclohexanecarboxylate], for which the “Percent inhibition (mean ± SEM), DPPH free radicals scavenging” value was 45.80 ± 0.61 %.

Staying with this assay, now noted: from 250-1000 μg/mL tested concentrations.
As for `CCOC(=O)C1(C2CC(=O)N(c3ccccc3)C2=O)CCCCC1=O` (stereo not drawn) [Compound 3, Ethyl 2-oxo-1-(2,5-dioxo-1-phenylpyrrolidin-3-yl)cyclohexanecarboxylate], the “IC50 (DPPH free radicals scavenging)” value came out at 535 µg/mL (≈ 1560 µM).

For `CCOC(=O)C1(C2CC(=O)N(Cc3ccccc3)C2=O)CCCCC1=O` (stereo not drawn) [Compound 4, 1Ethyl 1-(1-benzyl-2,5-dioxopyrrolidin-3-yl)-2-oxocyclohexanecarboxylate], the “IC50 (DPPH free radicals scavenging)” value is above 1000 µg/mL.

The values above are taken from publication PMC4461796, “Synthesis, anticholinesterase and antioxidant potentials of ketoesters derivatives of succinimides: a possible role in the management of Alzheimer’s” (Chemistry Central Journal, 2015).
